Reference: patent US20250354297A1, “SHIELDED SMALL NUCLEOTIDES FOR INTRACELLULAR BARCODING” (BOARD OF REGENTS, THE UNIVERSITY OF TEXAS SYSTEM, priority 2021, published 2025)

Tests used:
[1] = tested on: CD19.28z CAR T cells; assay: 8-plex CAR T SSN-seq ex vivo (infusion product); type: cell-based, human; details: 5 μM TWS119, 0.15 μM JQ1; CCR7, SELL, TCF7
Protocol: Pooled/sorted cells were processed for single-cell RNA sequencing at using Chromium Next GEM Single Cell 3′ Reagent Kit V3.1 (with feature barcoding technology for CRISPR screening), following the manufacturer's protocol. For enrichSSN amplification, a primer specific to the 5′ shield sequence was used (see FIG. 16A) and PCR was performed following 10× Genomics protocol for “Feature PCR” with 15 or 19 amplification cycles. Pooled libraries (the 3′ gene expression library and the sgRNA/SSN library, at a 4:1 ratio) were sequenced with a NovaSeq6000 SP-100 flow cell (Illumina) for each scRNA-seq experiment.
scRNA-seq data were preprocessed. In brief, gene expressing reads were aligned to the GRCh38 genome (human) and/or mm 10 genome (mouse) using the 10× Genomics Cell Ranger (version 6.0.2, 6.1.1 and 6.1.2), with the cellranger count pipeline. sgRNA/SSN counts were retrieved by cellranger count using the pattern containing unique group barcodes and constant sequences derived from the sgRNA/SSN scaffold. […] To ensure a fair quantitative comparison, sgRNA/SSN UMI counts shown across different experiments were restricted to the raw output of cellranger count. Filtered feature-barcode matrices were further analyzed in R using Seurat (version 4.0.3). In general, genes detected in less than three cells and cells expressing <200 or >7,000 RNA features (genes) were filtered out. […]

[2] = tested on: CD19.28z CAR T cells; assay: Flow cytometry of T cell memory markers CCR7 and CD45RA in 8-plex CAR T cells; type: cell-based, human; details: 5 μM TWS119, 0.15 μM JQ1, day 8
Protocol: 8-plex CAR T SSN-seg ex vivo (infusion product). Twenty-four hours after activation, human primary T cells were transduced with lentiviral vectors (see FIG. 16B). Transduced T cells were cultured in the presence of 5 μM TWS119, 0.15 μM JQ1, the combination of TWS119 and JQ1 (Combo), or DMSO (Mock) controls. CAR T cells in four treatment groups were expanded in culture media supplemented with IL2 or IL7 plus IL15 (denoted as IL7×15) cytokines. Culture media containing small molecule inhibitors and cytokines were replenished every other day. CAR T cells were maintained at a concentration of 0.5 to 1×10^6 cells per ml. On day 8, expression of T cell memory makers (CCR7 and CD45RA) was evaluated in all treatment groups using flow cytometry. Then, CAR T cells in all groups were counted and pooled at equal ratios. To enrich CAR^+ population a cell surface reporter NGFR^+ was utilized to FACS purify CAR T cells before scRNA-seq analysis. Aliquots of the pooled samples were also injected into tumor mice. Remaining CAR T cells were cryopreserved in CryoStor CS10 media (Stem Cell Technologies).

Row | SMILES | enriched genes in transcriptome analysis [1] | naïve and central memory markers (CCR7, CD45RA) [2]
1 | Nc1cccc(-c2cc3c(Oc4cccc(O)c4)ncnc3[nH]2)c1 [TWS119] | enriched in memory-related genes | enrichment of naïve and central memory markers
2 | Cc1sc2c(c1C)C(c1ccc(Cl)cc1)=N[C@@H](CC(=O)OC(C)(C)C)c1nnc(C)n1-2 [JQ1] | enriched in memory-related genes | enrichment of naïve and central memory markers
